Reference: US10736873B2, “Medical uses of N-(2-aminoethyl)-N-(4-benzyloxy)-3-methoxybenzyl)thiophene-2-formamide hydrochloride” (The Second Xiangya Hospital, Central South University, priority 2017, dated 2020)

Columns and labels:
[1] = test system: Scid-Huh7-subcutaneous tumor; experiment: Scid-Huh7 subcutaneous tumor model in NOD/SCID nude mice; format: in vivo; settings: for Relative volume of Scid-Huh7-subcutaneous tumor: 2 mg/kg i.p. 1 time/day
Method: (§1) Using the hepatoma cell line Huh7, 5×10^6 cells were injected into the right flank of each NOD/SCID nude mouse (10 in total) respectively. When the tumor grows to a volume of about 80 mm^3, the mice were randomly divided into control group and therapeutic intervention group, with 5 mice in each group. Therapeutic Intervention Group: M8-B hydrochloride was dissolved in DMSO to form an injectable medication, intraperitoneally injected, at a dose of 2 mg/kg (wherein 2 mg was the mass of M8-B hydrochloride), 1 time/day. Control Group: The blank solvent DMSO was intraperitoneally injected, at a dose of 2 mg/kg, 1 time/day. Tumor size was measured by volume=½×length×width^2, and the mice were sacrificed at week 6 to compare survival rate and tumor volume. The experimental results of this example are as follows: In Table 2, DMSO represents the relative volume of Scid-Huh7-subcutaneous tumor in the control group of blank solvent, M8-B represents the relative volume of Scid-Huh7-subcutaneous tumor in the therapeutic intervention group, and P value represents the difference between the relative volumes of Scid-Huh7-subcutaneous tumors in the control group and therapeutic intervention group. The tumor size on the first day of administration is 100%.

[2] = test system: Scid-HepG2-subcutaneous tumor; experiment: Scid-HepG2 subcutaneous tumor model in NOD/SCID nude mice; format: in vivo; settings: for Relative volume of Scid-HepG2-subcutaneous tumor: 2 mg/kg i.p. 1 time/day
Method: as §1, with “line HepG2,” for “line Huh7,”, “week 10 to compare survival rate and tumor volume. The experimental results of this example are as follows:[…]” for “week 6”, “Table 1,” for “Table 2,”, “of Scid-HepG2-subcutaneous” for “of Scid-Huh7-subcutaneous”

[3] = week 0, tumor size on first day of administration = 100%
[4] = week 1, first day of administration = 100%
[5] = week 2, first day of administration = 100%
[6] = week 3, first day of administration = 100%
[7] = week 4, first day of administration = 100%
[8] = week 5, first day of administration = 100%
[9] = week 6, first day of administration = 100%

COc1cc(CN(CCN)C(=O)c2cccs2)ccc1OCc1ccccc1.Cl [M8B]
changes of tumor volume in mice (HuH7 tumors) ([1]; versus DMSO control, results of table 2): significantly slower
Relative volume of Scid-Huh7-subcutaneous tumor [1, 3]: 100.00%
Relative volume of Scid-Huh7-subcutaneous tumor [1, 4]: 143.85%
Relative volume of Scid-Huh7-subcutaneous tumor [1, 5]: 205.0%
Relative volume of Scid-Huh7-subcutaneous tumor [1, 6]: 381.41%
Relative volume of Scid-Huh7-subcutaneous tumor [1, 7]: 484.0%
Relative volume of Scid-Huh7-subcutaneous tumor [1, 8]: 789.89%
Relative volume of Scid-Huh7-subcutaneous tumor [1, 9]: 928.01%
changes of tumor volume in mice (HepG2 tumors) ([2]; versus DMSO control, results of table 1): significantly slower
Relative volume of Scid-HepG2-subcutaneous tumor [2, 3]: 100.00%
Relative volume of Scid-HepG2-subcutaneous tumor [2, 4]: 151.94%
Relative volume of Scid-HepG2-subcutaneous tumor [2, 5]: 212.44%
Relative volume of Scid-HepG2-subcutaneous tumor [2, 6]: 273.9%
Relative volume of Scid-HepG2-subcutaneous tumor [2, 7]: 349.0%
Relative volume of Scid-HepG2-subcutaneous tumor [2, 8]: 416.66%
Relative volume of Scid-HepG2-subcutaneous tumor [2, 9]: 479.2%
Relative volume of Scid-HepG2-subcutaneous tumor ([2]; week 7, first day of administration = 100%): 590.68%
Relative volume of Scid-HepG2-subcutaneous tumor ([2]; week 8, first day of administration = 100%): 1108.50%
Relative volume of Scid-HepG2-subcutaneous tumor ([2]; week 9, first day of administration = 100%): 700.92%
Relative volume of Scid-HepG2-subcutaneous tumor ([2]; week 10, first day of administration = 100%): 734.87%
